Tested on: SEM cells
Assay: cell viability relative to DMSO control; higher = less cytotoxic
Details: 48 h
Method in brief: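 Leukemia cells (NOMO1 or SEM, 500 cells/well; P12-Ichikawa, 1000 cells/well) were seeded in 5 μl in 1536-well plates after at least four passages of adaptation to each medium. They received library compounds in DMSO by pin dosing, 11 threefold points from 47 μM to 0.79 nM. Luminescence with CellTiter-Glo One was read after 48 h at 37°C. Viability is stated per plate relative to DMSO wells, with cell-free wells as background.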

Nc1cc(N2CCCCC2)nc(N)[n+]1[O-]
cell viability [%]
Details | HPLM + 10% dialyzed FBS | RPMI 5 mM glucose + 10% FBS | RPMI 5 mM glucose + 10% dialyzed FBS
0.000781 µM | 98.9 | 100 | 115
0.00234 µM | 122 | 125 | 132
0.00702 µM | 115 | 108 | 114
0.0211 µM | 112 | 110 | 116
0.0632 µM | 124 | 106 | 120
0.19 µM | 120 | 116 | 129
0.569 µM | 121 | 121 | 108
1.71 µM | 75.6 | 78.9 | 79.8
5.12 µM | 124 | 122 | 135
15.4 µM | 61.5 | 58.2 | 83.9
46.1 µM | 127 | 120 | 133
